Results taken from patent US20090221530A1, “Relaxase Modulators and Methods of Using Same” (priority 2005, published 2009).
Read-outs that look alike come from different tables or passages of the source.

Tests used:
[1] = molecular target: T1, F plasmid TraI N300 (Escherichia coli, UniProt P14565); experiment: Fluorescence kinetic assay of oriT DNA cleavage and crossover by TraI N300; assay type: biochemical, E. coli
T1 construct: An amino-terminal 300 residue F plasmid TraI construct; made in house; host or cells: E. coli BL21 (DE3)/pLysS or HMS174 (DE3)/pLysS, vector pTYB2
T1 sequence (P14565 1-306): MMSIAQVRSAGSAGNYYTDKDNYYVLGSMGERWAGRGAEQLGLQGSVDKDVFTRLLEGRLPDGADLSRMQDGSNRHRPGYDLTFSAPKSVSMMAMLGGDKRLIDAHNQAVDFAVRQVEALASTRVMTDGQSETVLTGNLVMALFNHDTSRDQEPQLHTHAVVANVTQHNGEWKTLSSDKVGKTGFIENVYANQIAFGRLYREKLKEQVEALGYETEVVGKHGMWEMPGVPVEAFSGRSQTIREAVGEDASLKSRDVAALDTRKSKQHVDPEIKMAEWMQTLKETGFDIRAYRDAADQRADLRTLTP
Experimental: Reaction Buffer: 6.42 mM MgCl2, 20.5% glycerol, 153.9 mM NaCl, and 51.3 mM Tris-HCl pH 7.5. Streptavidin Wash Buffer (Tris buffered saline, TBS/Tween): and 150 mM NaCl, 25 mM Tris-HCl pH 7.5, and 0.05% Tween-20. Stopping Buffer: 1.2% sodium-dodecyl sulfate (SDS), and 300 mM EDTA pH 10. TE Buffer: 1 mM EDTA, and 10 mM Tris-HCl pH 7.4. Fluorescence Buffer: 80% glycerol, 200 mM Tris-HCl pH 8.0. Short-term N300 stock (for storage at −20° C.): 50% Reaction Buffer, 49.8% glycerol, 0.2% long-term protein solution (84.6 nM final N300 concentration). All 5× stocks except Probe stocks were diluted in Reaction Buffer. 5× Enzyme Stock: 8.4 mL short-term N300 stock diluted to 2.02 nM N300. 5× Inhibitor Stocks: imidodiphosphate (pNp) at 0-50 nM in Reaction Buffer. 5× Substrate Stocks: oligonucleotides b29 and PCb31eco diluted to […] each, by 3-fold serial dilutions. 5× Probe Stocks: […] (1.2-fold molar excess) oligonucleotide downF in TE Buffer. All reactions and procedures involving downF were assembled or performed in darkened conditions. Solutions and microtiter plates containing downF were kept in foil-lined containers at all times to prevent photobleaching.
Two oriT derived oligonucleotides, b29 and PCb31eco, were designed for binding and cleavage by TraI based on past studies (see Oligonucleotides section herein; FIG. 4A). The overall method is modified from those described previously for the study of TraI and R388TrwC (Byrd et al., 2002; Grandoso et al., 2000; Matson and Morton, 1991). Reactions were assembled from 16 μL of 5× Substrate Stock, 16 μL of 5× Inhibitor Stock, and 32 μL of Reaction Buffer. 80 μL reactions were initiated with 16 μL of 5× Enzyme Stock and raised to 37° C. 10 μL samples were removed at eight time points (optimized to define timecourses) and stopped in 10 μL of Stopping Buffer at room temperature. Stopped reactions were placed on a 100° C. heat block for one minute, spiked with 2 μL of 5× Probe Stock while still hot, and incubated at 37° C. for 10 minutes (see Kinetic Assay Formulations for probe handling).
Samples were diluted to […] with Streptavidin Wash Buffer and transferred to Biobind Assembly streptavidin-coated microtiter plates (Thermo Electron Corporation, Waltham, Mass., U.S.A.) and incubated at 37° C. for 45 minutes. Plates were washed with at least 5-fold excess Streptavidin Wash Buffer (in an inverted position to prevent excess biotinylated species from transferring between wells). Wells were filled with 65 μL of Fluorescence Buffer for optimum 6-FAM™ fluorescence. Plates were read in a FLUOSTAR OPTIMA™ (BMG Labtech, Offenburg, Germany) with a 490 nm excitation and 520 nm emission filters (10 nm bandpass) with the gain optimized for maximum signal. The timecourses thus collected were designated Cleavage Courses. Plates were removed and irradiated with 306 nm ultraviolet radiation for 10 minutes to cleave the PC biotin linker. They were then washed inverted with at least 5-fold excess Streptavidin Wash Buffer, filled with 65 μL of Fluorescence Buffer, and again read as above. These timecourses were designated Cleavage+Crossover Courses (FIG. 4A).
All timecourses were fitted by nonlinear regression with un-weighted least-squares methods using SIGMAPLOT™ 8.0 (SYSTAT Software, Inc., Point Richmond, Calif., U.S.A.) (also used for graph construction). Timecourses with blanked signals in arbitrary fluorescence units were scaled by curve mean in groups of at least four replicates, culled for outliers, and averaged by time point. On average, one replicate time point was culled from each group of four used. The averaged curves were fitted to a simple, three-parameter exponential decay equation (Equation 1), time versus signal, and converted into units of concentration.
where t is time in seconds, y0+a is the initial signal, b is a constant that determines the shape of the curve. […]

[2] = tested on: DNA conjugation from F+ (JS10) cells to F− (JS4) cells; experiment: Mating assay (conjugative DNA transfer); assay type: cell-based, E. coli; settings: Escherichia coli, F+ (JS10) donors to F− (JS4) recipients; FIG. 4D; read-out: EC50 of inhibition of DNA conjugation
Experimental: Mating assays were performed as described (Matson et al., 2001). Briefly, the donor strain JS10 contains pOX38T, a mini-F-plasmid capable of conjugative transfer, which also carries a Tet resistance gene, while the recipient strain JS4 is F− and Str^r. Donor and recipient strains from saturated overnight cultures grown under antibiotic selection were diluted 1:50 into LB and grown to an OD600 of approximately 0.6 in the absence of selection at 37° C. Donors and recipients were then mixed at a ratio of one donor to nine recipients in the presence of the desired concentrations of pNp (e.g., 10, 100 μM, 1, 10 mM) and incubated at 37° C. for five minutes. Following this incubation, the mating mixtures were diluted 1:10 into LB containing the desired concentration of pNp and incubated for a further 30 minutes. Following mating, the mixtures were vortexed to disrupt mating pairs and serially diluted into 0.9% sterile saline. Dilutions, predicted to result in 300-500 colonies on positive control plates, were plated on LB-agar plates containing both streptomycin and tetracycline in order to select for transconjugants and counter select for donors and unmated recipients. Eight replicate samples of each final dilution were plated, the colony counts culled for outliers at 95% confidence, and then averaged.

O=P(O)(O)NP(=O)(O)O [pNp, imidodiphosphate]
Ki ([1]; Cleavage, C-B/E Direct Linear Plot, read-out: Kic): 2.42 nM
Ki ([1]; Cleavage, C-B/E Direct Linear Plot, read-out: Kiu): 2.65 nM
Ki ([1]; Cleavage, M/M Nonlinear Regression, competitive inhibition constant, apparent, read-out: Kic): 2.3 ± 0.26 nM
Ki ([1]; Cleavage, M/M Nonlinear Regression, uncompetitive inhibition constant, apparent, read-out: Kiu): 3.17 ± 0.32 nM
Ki ([1]; Crossover, C-B/E Direct linear Plot, read-out: Kic): 1.59 nM
Ki ([1]; Crossover, C-B/E Direct linear Plot, read-out: Kiu): 3.24 nM
Ki ([1]; Crossover, M/M Nonlinear Regression, read-out: Kic): 0.885 ± 0.543 nM
Ki ([1]; DNA cleavage, read-out: inhibition constants (Ki values) for both competitive and uncompetitive modes (Kic and Kiu)): 2.5 to 3 nM
Ki ([1]; DNA crossover, read-out: Kic): 0.9 to 1.6 nM
Ki ([1]; DNA crossover, read-out: Kiu): 3.2 nM
EC50 [2]: ~10000 nM
